We go through 7 molecules from patent publication US20070178439A1, “Control of es cell self renewal and lineage specification, and medium therefor” (priority 2003, published 2007).

Common to all, as to format: cell-based, mouse
The subject of one assay is Id genes. The assay is described as follows: Gene induction in Oct4-selected ES cells (LightCycler RT-PCR, Northern hybridisation). Conditions: overnight in N2B27, then stimulated 45 minutes. The method, then: (§1) Oct4GiP ES cells (Ying et al., 2002) were cultured in the presence of puromycin for 4-6 days to eliminate differentiated cells. Purified ES cells were cultured in complete medium plus LIF for 24 hours then washed once with PBS and transferred to N2B27 medium overnight prior to stimulation for 45 min. with 20 ng/ml LIF, 50 ng/ml BMP4, LIF plus BMP4, 10 ng/ml TGF-β1 (all R&D Systems) or 15% FCS. Quantitative RT-PCR was carried out using the LightCycler Instrument (Roche). Data were normalised relative to Oct4 amplification. Primer pairs and reaction conditions are available upon request. Northern hybridizations were carried out on 5 μg aliquots of total RNA.

The subject of another assay is ES cells. The assay is described as follows: ES cell self-renewal versus differentiation in serum-free N2B27 adherent culture with passaging. Conditions: for ES cell self-renewal with TGF-β superfamily ligand or other factor in place of BMP4: N2B27, in the presence of LIF; for ES cell self-renewal / differentiation: N2B27 serum-free, factor(s) as labelled. The method, then:
(§2) ES cells were maintained without feeder cells. For serum-free culture, ES cells were plated onto gelatin-coated plates in N2B27 medium (Ying and Smith, 2003) supplemented with 10 ng/ml LIF (Sigma) and 10 ng/ml BMP4 or 200 ng/ml GDF6 (R&D Systems). Cells were passaged every 2-4 days using either enzyme-free Cell Dissociation Buffer (Invitrogen) or 0.025% trypsin/1% chicken serum. Dissociated cells were harvested in N2B27 and pelleted. Supernatant was aspirated and the cell pellet resuspended in N2B27 and replated directly. For single cell cloning, a finely drawn Pasteur pipette pre-loaded with N2B27 was used to pick individual cells into 10 μl drops. Drops were then singly transferred to 96-well plates pre-loaded with 150 μl N2B27 per well with LIF or LIF plus BMP4. After 8 days, ES cell colonies were identified and passaged. To produce chimaeras, ES cells were injected into C57Bl/6 blastocysts. Germline transmission was tested by mating male chimaeras with C57Bl/6 females.

The next assay has as its system Id1 Transfectants. The experiment in a line: Propagation of single ES cells in serum-free medium (single cell cloning), Id1 transfectants.
From the text: Under these conditions the transfectants were not overtly different from parental ES cells or empty vector transfectants. In contrast, in serum-free N2B27, Id transfectants whilst remaining LIF-dependent, were liberated from requirement for BMP. These cells proliferated in LIF alone as rapidly and with as little differentiation as parental ES cells in LIF plus BMP. The cultures could be passaged multiple times with no change in undifferentiated morphology or factor dependence. The ES cell phenotype was confirmed by expression of Oct4 and Nanog mRNAs (FIG. 4D). As a rigorous test of the capacity of Id expression to substitute for serum or BMP/GDF, we plated single cells in N2B27.
as §2

Assay [1] has as its system blastocysts / inner cell masses. The experiment in a line: Derivation of ES cells from blastocysts in serum free medium. Conditions: ICM dissociated after 4 days of blastocyst culture in LIF only, BMP4 added on replating. An excerpt:
We investigated whether the response to BMP may be an adaptation of established ES cells to culture or is manifest during the initial stages of ES cell derivation. We plated blastocysts in N2B27 supplemented with BMP plus LIF. After several days expanded inner cell masses (ICMs) were dissociated and replated in the same culture conditions. […] Therefore we subsequently dissociated the ICM after only 4 days of blastocyst culture in LIF only and added BMP4 on replating. […] These could be passaged and expanded as morphologically undifferentiated ES cells. One line (SF1) was characterised further. Upon withdrawal of LIF and BMP, SF1 ES cells underwent neural differentiation in vitro. Moreover, SF1 cells produced extensively chimaeric mice (FIG. 2F). Twelve chimaeras were all male, indicative of sex conversion by highly contributing XY ES cells (Bradley et al., 1984).
Strain 129 mice were ovariectomised on the third day of pregnancy and embryos in diapause flushed 4 days later (Nichols et al., 1990). Intact blastocysts were plated on gelatin-coated plastic in N2B27 supplemented with LIF (10 ng/ml). After 3-6 days the central mass of each explant was picked, rinsed in PBS and placed in a drop of trypsin for a few minutes. […]

The test system of assay [2] is tis11, c-fos, junB, socs3. The experiment in a line: Induction of known LIF target genes in Oct-selected ES cells (real time RT-PCR). To be noted: 45 min stimulation. How it is done:
as §1
In general terms: Real-time PCR tracks product formation cycle by cycle.

Another assay concerns Smad1. The experiment in a line: Immunoblot of active serine phosphorylated Smad1 in undifferentiated ES cells. Conditions: 15 min or 1 hour stimulation. How it is done: (§3) Pre-selected Oct4GiP ES cells were transferred to N2B27 medium overnight prior to stimulation with LIF (20 ng/ml), BMP4 (50 ng/ml) or LIF plus BMP4 for 15 min or 1 hour. Phosphorylated stat3, smad1, erk1/2 and p38 were detected by immunoblotting (Cell Signaling Technology). Cell lysis and immunoprecipitation (Nakashima et al., 1997) employed anti-FLAG (Sigma) or anti-Stat3 (Transduction Labs). Immunostaining was performed as described (Ying et al., 2003)
(A western blot detects proteins with antibodies after separation by electrophoresis.)

Assay [3] relates to p38 and erk mitogen-activated protein kinases. The experiment in a line: Immunoblot of p38 and erk activation in undifferentiated ES cells. The method, then:
as §3

The next assay concerns STAT3. The experiment in a line: Immunoblot of STAT3 tyrosine 705 phosphorylation in ES cells. The method, then:
as §3

The mark [4] stands for this setting: Id1 transfectants, single cells, N2B27 serum-free.

“Also recorded” adds a separate entry of the source.

As for fibronectin, the “Id gene (Id1, Id2, Id3) mRNA induction” value in the assay on Id genes was “induced by foetal calf serum and by fibronectin, although to a lesser extent than by BMP”. Also, the “Passages over which undifferentiated Oct4-GiP cells could be expanded” value in the assay with ES cells (N2B27, in combination with LIF) is recorded as “at least 10 passages”. The “ES cell self-renewal with TGF-β superfamily ligand or other factor in place of BMP4” value (“ES cell self-renewal … of BMP4” below) with ES cells is “more differentiation and slower population expansion than in BMP”.

For the molecule “TGF-β1: TGF-β superfamily member, not a BMP receptor ligand”, the “Id gene (Id1, Id2, Id3) mRNA induction” value in the assay with Id genes is “Neither activin (data not shown) nor TGF-β1 induce Id gene expression”. The “ES cell self-renewal … of BMP4” value in the assay with ES cells is reported as “no discernible effect on ES cells”.

Consider activin, for which, in the assay with Id genes, the “Id gene (Id1, Id2, Id3) mRNA induction” value was “Neither activin (data not shown) nor TGF-β1 induce Id gene expression”. In the assay on ES cells, the “ES cell self-renewal … of BMP4” value was “increased viability and/or proliferation but did not suppress differentiation”.

Regarding `C[S+]([O-])c1ccc(-c2nc(-c3ccncc3)c(-c3ccc(F)cc3)[nH]2)cc1` (stereo not drawn) [SB203580, reference compound], in the assay on ES cells (30 μM, N2B27), the “Effect of p38 inhibitor on balance of self-renewal and neural differentiation in LIF only” value was “does not suppress; also recorded: did not alter the balance between self-renewal and neural differentiation”; the “Effect of p38 inhibitor on self-renewal in LIF plus BMP” value is given as “does not suppress; also recorded: no noticeable effect”. In the assay on ES cells (N2B27), the “Overall cell viability in LIF only” value is “appeared to enhance overall cell viability”.

For the molecule “LIF: gp130 receptor binding cytokine, Leukaemia Inhibitory Factor”, the “ES cell self-renewal / differentiation” value with ES cells is reported as “reduces but does not eliminate neural differentiation”. For the same molecule, in the assay with ES cells (successive passaging in N2B27), the “Passages after which number of undifferentiated ES cells began to decline” value is 2-3 passages. In the assay on Id1 Transfectants (setting [4]), the “Number of colonies expanded” value came to 16 and the “Number of colonies formed at day 8” value came out at 19. In the assay with Id1 Transfectants (Id transfectants, N2B27), the “Frequency of undifferentiated passageable colony formation from single cells” value was 10%.

B1: BMP4: BMP receptor ligand, agonist of the TGF-β superfamily signalling pathway (protein, UniProt P12644 293-408, looked up)
Bone morphogenetic protein 4: SPKHHSQRARKKNKNCRRHSLYVDFSDVGWNDWIVAPPGYQAFYCHGDCPFPLADHLNSTNHAIVQTLVNSVNSSIPKACCVPTELSAISMLYLDEYDKVVLKNYQEMVVEGCGCR
With B1, in assay [1], the “Formation of primary ES cell colonies” value is “primary ES cell colonies did form”. Also, the “Id gene (Id1, Id2, Id3) mRNA induction” value in the assay on Id genes is “strongly induced”. Also, in assay [2], the “Induction of junB and socs3 mRNA” value is recorded as “more highly induced by LIF in the presence of BMP”; the “Induction of tis11 and c-fos mRNA” value is given as “showed no response to BMP”. For the same molecule, in the assay with Smad1, the “Phosphorylation of Smad1” value is recorded as “Increased phosphorylation of Smad1”. Besides, the “Erk activation in response to LIF in presence of BMP” value in assay [3] (LIF plus BMP) is “not appreciably inhibited”. For the same molecule, the “Activation of p38 and erk” value in assay [3] (undifferentiated ES cells, 15 min or 1 hour stimulation) is “enhances the basal activation of p38 and, by one hour, of erk”. The “STAT3 activation (phosphorylation of tyrosine 705)” value in the assay with STAT3 (BMP alone) is listed as “does not activate STAT3”. Also, the “STAT3 activation by LIF in presence of BMP” value in the assay on STAT3 (LIF plus BMP) was “Nor does it increase STAT3 activation by LIF”. In the assay on ES cells, the “ES cell self-renewal / differentiation” value is “differentiation into sheets of flattened epithelial-like cells”.

B2: GDF-6: BMP relative growth and differentiation factor-6 (protein, UniProt Q6KF10 336-455, looked up)
Growth/differentiation factor …: TAFASRHGKRHGKKSRLRCSKKPLHVNFKELGWDDWIIAPLEYEAYHCEGVCDFPLRSHLEPTNHAIIQTLMNSMDPGSTPPSCCVPTKLTPISILYIDAGNNVVYKQYEDMVVESCGCR
Turning to B2, the “Id gene (Id1, Id2, Id3) mRNA induction” value in the assay with Id genes was “strongly induced”. Besides, the “ES cell self-renewal … of BMP4” value in the assay with ES cells is reported as “similarly supported ES cell self-renewal”.
